Experimental data as given in paper PMC5149029, “New Aspects of Silibinin Stereoisomers and their 3-O-galloyl Derivatives on Cytotoxicity and Ceramide Metabolism in Hep G2 hepatocarcinoma Cell Line” (Iranian Journal of Pharmaceutical Research : IJPR, 2016).
Marks after values point to notes of the source that are not given here.

Tests used:
Acid ceramidase (ACDase) = target: T1, Acid ceramidase (ACDase) (Homo sapiens, UniProt Q13510); test: ACDase activity assay (fluorogenic); assay type: cell-based; conditions: for ACDase activity in cell extract compared to control: Hep G2, 125 µM and higher concentrations
T1 construct: endogenous in cells; host or cells: Hep G2
T1 sequence (Q13510 22-395): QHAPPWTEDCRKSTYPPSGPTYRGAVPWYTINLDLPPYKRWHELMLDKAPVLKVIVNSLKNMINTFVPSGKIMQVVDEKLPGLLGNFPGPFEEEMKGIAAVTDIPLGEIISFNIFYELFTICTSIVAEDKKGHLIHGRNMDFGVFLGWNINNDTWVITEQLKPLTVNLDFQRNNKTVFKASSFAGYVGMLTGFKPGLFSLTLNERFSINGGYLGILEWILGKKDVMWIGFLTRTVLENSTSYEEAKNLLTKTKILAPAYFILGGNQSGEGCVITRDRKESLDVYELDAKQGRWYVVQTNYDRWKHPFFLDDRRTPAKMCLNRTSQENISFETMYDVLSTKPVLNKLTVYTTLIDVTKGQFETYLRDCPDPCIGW
Experimental: (§1) The cell line was grown in RPMI-1640 medium supplemented with L-glutamine 2 mM, HEPESNa 25 mM, penicillin 100 U/mL, streptomycin 100 μg/mL and 10% […] (FBS) at 37 °C in a humidified atmosphere containing 5% CO2. Hep G2 cells were seeded at 1 × 10^6 cells/mL and sub cultured every 2–3 days after 60–80% confluence was reached. To prepare the lysates cells attached to the culture plate were scraped off with a cell scraper and collected in a 1.5 mL tube by centrifugation. The cell pellets were rinsed with PBS, suspended in sterile water, and then lysed by sonication. For each experiment, the cells were treated separately with increasing concentrations of silibinin derivatives (0, 25, 50, 75, 100, 125, 150, 175 and 200 μM) and incubated for 48 h.
ACDase activity was measured in intact cells and in cell lysates by fluorogenic assays. For intact cell assays, cells (10,000/well) were seeded into 96-well plates in 10% FBS medium. After 24 h, medium was removed and replaced with 5% FBS medium containing indicated concentrations of silibinin derivatives (controls contained ethanol vehicle). Plates were placed in a tissue culture incubator at 37 °C, 5% CO2 for 24 h and cell viability assays were conducted in parallel. Fluorogenic substrate (ethanol vehicle) was then added to a final concentration of 16μM (125 μL final well volume), and the plates were incubated for 3 h at 37 °C, 5% CO2. To complete the assays, 50 μL methanol and 100 μL NaIO4 (2.5 mg/mL) in 0.1 M glycine buffer with a pH of 10.6 were added and the plates were incubated in a dark place for 2 h at 37 °C. Fluorescence was measured in the UV range (365 nm excitation/410–460 nm emission) using a GloMax® multi-detection system (Promega, Madison, WI).
To measure ACDase activity in cell lysates, cells were harvested using trypsin/EDTA, washed three times in ice-cold PBS and re-suspended at a concentration of 1 × 10^6 cells/mL in 0.2 M sucrose. After sonication on ice (microtip, 5–10 s), lysates were centrifuged at 20,000 × g at 4 °C for 15 min to remove debris. Protein in the supernatant was measured using the BCA assay (Pierce Products, Thermo Scientific, Rockford, IL) and bovine serum albumin standard curves. Supernatant protein (60 μg) was added to 96-well plates containing the indicated compounds and sodium acetate–acetic acid buffer, pH 4.5 (25 mM), and incubated for 1 h at 37 °C, in final well volume of 100 μL. Fluorescent substrate was added to a final concentration of 40 μM (125 μL total well volume), and the assay was incubated in the dark at 37 °C for 3 h. Fluorescence was then measured as described above ([23]).

caspase-9 = test: Caspase-9 activity, colorimetric substrate Ac-LEHD-pNA; assay type: cell-based, human; conditions: Hep G2, 48 h, control 0.26
Experimental: as §1
(§2) The activities of caspase-3 and 9 were measured using colorimetric substrates. Cells were added to a lysis buffer (100 mM HEPES [pH 7.5], 0.1% CHAPS, 1 mM PMSF, 10 mM MDTT, 1 mM EDTA) and placed on ice for 30 min. After the cells were centrifuged at 10,000 × g for 10 min at 4 °C, 50 μg of protein from the supernatants was added to each of the caspase substrates. The colorimetric substrates for caspase-3 and 9 were Ac-DEVD-pNA (Asp-Glu-Val-Asp-pNA) and Ac-LEHD-pNA (N-acetyl-Leu-Glu-His-Asp-pNA), respectively. After a 2 h incubation, to measure p-nitroanilide absorbance was determined at 405 nm ([34]).

Hep G2 cells = test: Cell viability, MTT colorimetric assay; assay type: cell-based; conditions: Hep G2, 48 h
Experimental: The cell line was grown in RPMI-1640 medium supplemented with L-glutamine 2 mM, HEPESNa 25 mM, penicillin 100 U/mL, streptomycin 100 μg/mL and 10% phosphate-buffered saline (FBS) at 37 °C in a humidified atmosphere containing 5% CO2. Hep G2 cells were seeded at 1 × 10^6 cells/mL and sub cultured every 2–3 days after 60–80% confluence was reached. […] For each experiment, the cells were treated separately with increasing concentrations of silibinin derivatives (0, 25, 50, 75, 100, 125, 150, 175 and 200 μM) and incubated for 48 h.
To measure cell viability, the 3-(4,5-dimethylthiazol-2-yl)-2,5-diphenyl tetrazolium bromide (MTT) colorimetric assay was performed as published ([32], [33]). Briefly, Hep G2 cells were seeded onto 96 flat bottom well plates (50 × 10^3 cells/well) and grown overnight. After the incubation period with silibinin isomers, cells were washed twice with phosphate-buffered saline solution and incubated with MTT solution at a final concentration of 0.5 mg/mL for 3 h and then lysed in dimethyl sulfoxide. Optical density was measured at 540 nm and the background absorbance measured at 660 nm was subtracted. Each experiment was replicated separately for three times.

caspase-3 = test: Caspase-3 activity, colorimetric substrate Ac-DEVD-pNA; assay type: cell-based, human; conditions: Hep G2, 48 h, control 0.38
Experimental: as §1, §2

Structure (SMILES)	Caspase-9 (ΔOD 405nm) (caspase-9; 25 micro molar)	Caspase-9 (ΔOD 405nm) (caspase-9; 50 micro molar)	Caspase-9 (ΔOD 405nm) (caspase-9; 75 micro molar)	Caspase-9 (ΔOD 405nm) (caspase-9; 100 micro molar)	Caspase-9 (ΔOD 405nm) (caspase-9; 125 micro molar)	Caspase-9 (ΔOD 405nm) (caspase-9; 150 micro molar)	Caspase-9 (ΔOD 405nm) (caspase-9; 175 micro molar)	Caspase-9 (ΔOD 405nm) (caspase-9; 200 micro molar)	Cell viability (% of control) (Hep G2 cells; 25 micro molar)	Cell viability (% of control) (Hep G2 cells; 50 micro molar)	Cell viability (% of control) (Hep G2 cells; 75 micro molar)	Cell viability (% of control) (Hep G2 cells; 100 micro molar)	Cell viability (% of control) (Hep G2 cells; 125 micro molar)	Cell viability (% of control) (Hep G2 cells; 150 micro molar)	Cell viability (% of control) (Hep G2 cells; 175 micro molar)	Cell viability (% of control) (Hep G2 cells; 200 micro molar)	Caspase-3 (ΔOD 405nm) (caspase-3; 25 micro molar)	Caspase-3 (ΔOD 405nm) (caspase-3; 50 micro molar)	Caspase-3 (ΔOD 405nm) (caspase-3; 75 micro molar)	Caspase-3 (ΔOD 405nm) (caspase-3; 100 micro molar)	further results
COc1cc([C@H]2Oc3cc([C@H]4Oc5cc(O)cc(O)c5C(=O)[C@@H]4O)ccc3O[C@@H]2CO)ccc1O [SA, silybin A]	0.41 ± 0.060 ΔOD 405nm	0.50 ± 0.089 ΔOD 405nm	0.61 ± 0.102 ΔOD 405nm	0.73 ± 0.110 ΔOD 405nm	0.84 ± 0.133 ΔOD 405nm	0.96 ± 0.143 ΔOD 405nm	1.10 ± 0.164 ΔOD 405nm	1.16 ± 0.147 ΔOD 405nm	97 + 10.0 % of control	95 + 10.3 % of control	89 + 11.4 % of control	83 + 9.5 % of control	71 + 8.3^* % of control	63 + 7.4^* % of control	52 + 6.0^* % of control	47 + 5.5^* % of control	0.45 ± 0.055 ΔOD 405nm	0.58 ± 0.080 ΔOD 405nm	0.65 ± 0.098 ΔOD 405nm	0.79 ± 0.107 ΔOD 405nm	ACDase activity, effect of cell exposure (Acid ceramidase (ACDase); Hep G2, throughout the concentration range (0-200 µM)): could not alter ACDase activity; inhibition at 200 µM (Acid ceramidase (ACDase); HepG2, Hep G2 cell extract, 200 µM): 18%; Caspase-3 (ΔOD 405nm) (caspase-3; 125 micro molar): 0.91 ± 0.133 ΔOD 405nm; Caspase-3 (ΔOD 405nm) (caspase-3; 150 micro molar): 0.98 ± 0.148 ΔOD 405nm; Caspase-3 (ΔOD 405nm) (caspase-3; 175 micro molar): 1.12 ± 0.164 ΔOD 405nm; Caspase-3 (ΔOD 405nm) (caspase-3; 200 micro molar): 1.06 ± 0.152 ΔOD 405nm
COc1cc([C@@H]2Oc3cc([C@H]4Oc5cc(O)cc(O)c5C(=O)[C@@H]4O)ccc3O[C@H]2CO)ccc1O [SB, silybin B]	0.30 ± 0.048 ΔOD 405nm	0.41 ± 0.055 ΔOD 405nm	0.47 ± 0.070 ΔOD 405nm	0.56 ± 0.067 ΔOD 405nm	0.60 ± 0.083 ΔOD 405nm	0.67 ± 0.105 ΔOD 405nm	0.81 ± 0.126 ΔOD 405nm	0.89 ± 0.114 ΔOD 405nm	94 + 10.3 % of control	89 + 10.5 % of control	81 + 10.7^* % of control	70 + 10.0^* % of control	60 + 7.9^* % of control	51 + 7.6^* % of control	45 + 5.1^* % of control	40 + 6.0^* % of control	0.34 ± 0.050 ΔOD 405nm	0.45 ± 0.060 ΔOD 405nm	0.58 ± 0.076 ΔOD 405nm	0.53 ± 0.065 ΔOD 405nm	ACDase activity in cell extract compared to control (Acid ceramidase (ACDase)): markedly inhibited; Caspase-3 (ΔOD 405nm) (caspase-3; 125 micro molar): 0.62 ± 0.095 ΔOD 405nm; Caspase-3 (ΔOD 405nm) (caspase-3; 150 micro molar): 0.73 ± 0.105 ΔOD 405nm; Caspase-3 (ΔOD 405nm) (caspase-3; 175 micro molar): 0.82 ± 0.130 ΔOD 405nm; Caspase-3 (ΔOD 405nm) (caspase-3; 200 micro molar): 0.79 ± 0.096 ΔOD 405nm
COc1cc([C@H]2Oc3cc([C@H]4Oc5cc(O)cc(O)c5C(=O)[C@@H]4OC(=O)c4cc(O)c(O)c(O)c4)ccc3O[C@@H]2CO)ccc1O [SGA, 3-O-galloyl silybin A]	0.23 ± 0.029 ΔOD 405nm	0.40 ± 0.053 ΔOD 405nm	0.55 ± 0.070 ΔOD 405nm	0.86 ± 0.136 ΔOD 405nm	0.69 ± 0.103 ΔOD 405nm	0.80 ± 0.124 ΔOD 405nm	1.19 ± 0.147 ΔOD 405nm	1.30 ± 0.167 ΔOD 405nm	96 + 10.5 % of control	84 + 9.3^* % of control	73 + 10.7^* % of control	63 + 8.9^* % of control	52 + 8.1^* % of control	44 + 6.0^* % of control	38 + 5.7^* % of control	33 + 5.1^* % of control	0.35 ± 0.038 ΔOD 405nm	0.46 ± 0.062 ΔOD 405nm	0.58 ± 0.070 ΔOD 405nm	0.67 ± 0.084 ΔOD 405nm	ACDase activity in cell extract compared to control (Acid ceramidase (ACDase)): markedly inhibited; Caspase-3 (ΔOD 405nm) (caspase-3; 125 micro molar): 0.83 ± 0.114 ΔOD 405nm; Caspase-3 (ΔOD 405nm) (caspase-3; 150 micro molar): 0.97 ± 0.134 ΔOD 405nm; Caspase-3 (ΔOD 405nm) (caspase-3; 175 micro molar): 1.12 ± 0.147 ΔOD 405nm; Caspase-3 (ΔOD 405nm) (caspase-3; 200 micro molar): 1.26 ± 0.164 ΔOD 405nm
